Data set [1] concerns the target Voltage-gated inwardly rectifying potassium channel KCNH2 (Homo sapiens, UniProt Q12809). As to the kind of experiment: Inhibition of human ERG.
The species entered for a further data set is Homo sapiens. The experiment in a line: Selectivity index, ratio of Ki for PKA (unknown origin) to Ki for ROCK1 (unknown origin).
In data set [2] the target is Rho-associated protein kinase 1 (Homo sapiens, UniProt Q13464). As to the kind of experiment: Inhibition of ROCK1 (unknown origin).
In another data set the test system is THP-1. As to the kind of experiment: Antimigratory activity against human THP-1 cells. In kind it is functional, cell-based.
Data set [3] is described as follows: Intrinsic clearance in human Hepatocyte assessed per million cells. In kind it is ADME, tissue-based. The conditions noted are these: hepatocytes, read-out: CLH.
Data set [4] can be described thus: Intrinsic clearance in rat Hepatocyte assessed per million cells. The format is ADME, tissue-based. The conditions noted are these: hepatocytes, read-out: CLH.
A short description of data set [5]: Clearance in rat at 1 mg/kg, iv. The format is ADME, organism-based. To be noted: in vivo.
The nature of data set [6]: AUC(0 to infinity) in rat at 1 mg/kg, iv. The format is ADME, organism-based. On the set-up: route intravenous, time infinity, dose 1 mg/kg. To be noted: in vivo.
The nature of data set [7]: Volume of distribution at steady state in rat at 1 mg/kg, iv. To be noted: in vivo, read-out: Vdss. In kind it is ADME, organism-based.
The nature of data set [8]: Half life in rat at 1 mg/kg, iv. To be noted: in vivo. The format is ADME, organism-based.
Data set [9] in a line: Cmax in rat at 3 mg/kg, po. In kind it is ADME, organism-based. On the set-up: route oral, dose 3 mg/kg. To be noted: in vivo.
Data set [10] in a line: AUC(0 to infinity) in rat at 3 mg/kg, po. The format is ADME, organism-based. On the set-up: route oral, time infinity, dose 3 mg/kg. The conditions noted are these: in vivo.
A short description of data set [11]: Oral bioavailability in rat at 3 mg/kg. The format is ADME, organism-based. To be noted: in vivo.
The next data set addresses Cytochrome P450 3A4 (Homo sapiens, UniProt P08684). As to the kind of experiment: Inhibition of CYP3A4 (unknown origin). The format is ADME.

Chain of Voltage-gated inwardly rectifying potassium channel KCNH2 (Q12809 whole entry): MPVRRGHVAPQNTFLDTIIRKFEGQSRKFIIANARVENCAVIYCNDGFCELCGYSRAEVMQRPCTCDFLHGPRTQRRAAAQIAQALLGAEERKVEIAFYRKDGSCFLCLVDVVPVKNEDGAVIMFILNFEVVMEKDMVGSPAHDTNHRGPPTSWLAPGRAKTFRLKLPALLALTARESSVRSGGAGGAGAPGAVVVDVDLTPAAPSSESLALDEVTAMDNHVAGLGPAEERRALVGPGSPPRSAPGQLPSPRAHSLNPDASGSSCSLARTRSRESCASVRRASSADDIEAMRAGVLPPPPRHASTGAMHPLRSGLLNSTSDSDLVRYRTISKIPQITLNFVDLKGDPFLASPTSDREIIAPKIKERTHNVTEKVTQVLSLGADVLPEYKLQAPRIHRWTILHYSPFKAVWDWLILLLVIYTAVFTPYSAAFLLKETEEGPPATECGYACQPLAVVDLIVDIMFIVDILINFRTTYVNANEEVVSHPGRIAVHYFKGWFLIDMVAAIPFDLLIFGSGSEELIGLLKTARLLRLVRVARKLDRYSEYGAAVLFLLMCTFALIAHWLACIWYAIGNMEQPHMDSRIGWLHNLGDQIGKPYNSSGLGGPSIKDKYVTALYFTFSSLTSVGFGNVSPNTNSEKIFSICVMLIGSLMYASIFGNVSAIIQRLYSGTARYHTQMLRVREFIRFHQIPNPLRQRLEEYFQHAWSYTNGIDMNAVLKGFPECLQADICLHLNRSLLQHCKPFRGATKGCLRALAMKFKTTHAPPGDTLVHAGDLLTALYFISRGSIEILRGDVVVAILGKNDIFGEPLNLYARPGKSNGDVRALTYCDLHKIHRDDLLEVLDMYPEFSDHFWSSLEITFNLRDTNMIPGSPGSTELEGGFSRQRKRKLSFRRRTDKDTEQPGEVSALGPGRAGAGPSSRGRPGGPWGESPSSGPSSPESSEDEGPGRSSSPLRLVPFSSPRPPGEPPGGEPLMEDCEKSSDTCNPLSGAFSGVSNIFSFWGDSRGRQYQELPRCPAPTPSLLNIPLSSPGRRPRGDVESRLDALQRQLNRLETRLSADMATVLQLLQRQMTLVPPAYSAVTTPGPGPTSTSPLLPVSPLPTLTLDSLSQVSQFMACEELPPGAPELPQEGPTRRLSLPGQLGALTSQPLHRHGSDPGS
Chain of Rho-associated protein kinase 1 (Q13464 whole entry): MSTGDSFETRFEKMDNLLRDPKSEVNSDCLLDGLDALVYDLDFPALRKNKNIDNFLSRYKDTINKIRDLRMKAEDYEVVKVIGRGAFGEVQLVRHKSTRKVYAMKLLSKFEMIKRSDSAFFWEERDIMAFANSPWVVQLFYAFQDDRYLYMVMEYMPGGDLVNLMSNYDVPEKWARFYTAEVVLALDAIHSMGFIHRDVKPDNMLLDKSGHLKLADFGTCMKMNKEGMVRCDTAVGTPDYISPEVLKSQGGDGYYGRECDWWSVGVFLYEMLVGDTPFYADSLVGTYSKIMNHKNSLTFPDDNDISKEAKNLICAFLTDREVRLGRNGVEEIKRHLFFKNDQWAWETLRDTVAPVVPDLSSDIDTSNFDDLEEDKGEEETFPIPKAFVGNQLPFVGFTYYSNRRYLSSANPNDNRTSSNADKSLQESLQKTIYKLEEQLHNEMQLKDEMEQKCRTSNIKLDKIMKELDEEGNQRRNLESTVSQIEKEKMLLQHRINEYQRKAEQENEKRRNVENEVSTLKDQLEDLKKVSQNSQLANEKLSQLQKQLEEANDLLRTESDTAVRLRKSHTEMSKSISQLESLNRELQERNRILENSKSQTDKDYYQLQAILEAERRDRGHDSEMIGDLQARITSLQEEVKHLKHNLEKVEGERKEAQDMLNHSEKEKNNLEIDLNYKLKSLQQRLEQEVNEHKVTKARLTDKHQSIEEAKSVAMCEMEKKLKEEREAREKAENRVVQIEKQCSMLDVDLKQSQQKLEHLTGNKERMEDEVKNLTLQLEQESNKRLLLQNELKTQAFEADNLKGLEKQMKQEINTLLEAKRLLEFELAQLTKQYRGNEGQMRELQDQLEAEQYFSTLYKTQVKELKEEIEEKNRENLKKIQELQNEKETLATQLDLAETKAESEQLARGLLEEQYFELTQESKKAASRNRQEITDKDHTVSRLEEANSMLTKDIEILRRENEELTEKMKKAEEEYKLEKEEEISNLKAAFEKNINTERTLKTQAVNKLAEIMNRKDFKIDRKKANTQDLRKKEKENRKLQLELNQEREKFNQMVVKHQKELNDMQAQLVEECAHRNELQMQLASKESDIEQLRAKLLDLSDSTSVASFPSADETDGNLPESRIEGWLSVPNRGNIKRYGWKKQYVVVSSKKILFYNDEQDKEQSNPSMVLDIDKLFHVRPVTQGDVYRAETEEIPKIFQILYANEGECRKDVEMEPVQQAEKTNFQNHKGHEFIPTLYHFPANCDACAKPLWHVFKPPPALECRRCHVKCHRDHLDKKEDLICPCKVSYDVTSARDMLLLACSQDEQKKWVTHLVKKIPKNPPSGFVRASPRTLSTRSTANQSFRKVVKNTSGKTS
Chain of Cytochrome P450 3A4 (P08684 whole entry): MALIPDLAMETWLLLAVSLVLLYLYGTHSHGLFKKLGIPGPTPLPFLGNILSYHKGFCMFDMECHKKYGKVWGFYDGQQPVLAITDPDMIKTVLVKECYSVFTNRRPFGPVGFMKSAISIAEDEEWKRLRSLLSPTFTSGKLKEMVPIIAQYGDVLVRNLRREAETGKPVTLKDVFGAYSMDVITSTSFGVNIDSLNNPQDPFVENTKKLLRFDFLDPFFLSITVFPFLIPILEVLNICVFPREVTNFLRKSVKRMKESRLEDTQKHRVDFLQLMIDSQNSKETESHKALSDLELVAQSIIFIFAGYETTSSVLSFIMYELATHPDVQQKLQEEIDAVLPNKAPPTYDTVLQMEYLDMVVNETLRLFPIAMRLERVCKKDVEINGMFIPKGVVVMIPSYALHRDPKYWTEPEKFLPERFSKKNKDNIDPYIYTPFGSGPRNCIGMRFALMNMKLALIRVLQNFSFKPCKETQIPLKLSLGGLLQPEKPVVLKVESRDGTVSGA

On to `O=C(Cc1cccc(OCCCC2CCNCC2)c1)Nc1nc(-c2c[nH]c3ncc(F)cc23)cs1`, for which the IC50 is greater than 30000 nM in [1] and 140 nM with THP-1. The Ratio Ki in the data set filed under Homo sapiens is greater than 480. The compound further came in with a Ki in data set [2] of 1 nM. Further, the hepatocyte CLint turned out to be 6.3 µL/min/1e6 cells in data set [3] and 20.5 µL/min/1e6 cells in [4]. In data set [5], this compound gave a clearance of 66 mL/min/kg. The AUC(0-inf) in [6] turned out to be 250 ng·h/mL. Also, in data set [7], the Vd came out at 8.7 L/kg. The same compound had a half-life in [8] of 3.8 h.
In data set [9], `CS(=O)(=O)Nc1cccc(CC(=O)Nc2nc(-c3c[nH]c4ncccc34)cs2)c1` yielded a Cmax of 900 ng/mL. This compound also displayed an IC50 in the data set with THP-1 of 20 nM. The hepatocyte CLint in data set [3] was found to be 4 µL/min/1e6 cells; in data set [4], 6.7 µL/min/1e6 cells. The figures for the AUC in data set [10] and in data set [6] were 9200 ng·h/mL and 2400 ng·h/mL, respectively. In [5], this compound displayed a clearance of 7 mL/min/kg. Besides, the Vd in [7] is 0.6 L/kg. In [11] (3 mg/kg), this compound returned an F of 38%. In data set [8], this compound gave a half-life of 2 h.
Turning to `CS(=O)(=O)Nc1cccc(CC(=O)Nc2nc(-c3c[nH]c4nccc(F)c34)cs2)c1`, the Ratio Ki in the data set filed under Homo sapiens was 31. For the same compound, the IC50 against Cytochrome P450 3A4 worked out at 36000 nM; with THP-1, 80 nM. For the same compound, the affinity in data set [2], expressed as Ki, was 4 nM.
For `CS(=O)(=O)Nc1cccc(CC(=O)Nc2nc(-c3c[nH]c4ncc(Cl)cc34)cs2)c1` the same measures were 46, 8000 nM, 310 nM and 11 nM.
Take `CN1CCN(CCOc2cccc(CC(=O)Nc3nc(-c4c[nH]c5ncc(F)cc45)cs3)c2)CC1`: in the data set listed under Homo sapiens, the Ratio Ki is 320. Also, the IC50 against Cytochrome P450 3A4 was determined as 27000 nM; in the data set with THP-1 it was 400 nM. The compound also came in with a Ki in data set [2] of 3 nM.
In the case of `CS(=O)(=O)Nc1cccc(CC(=O)Nc2ccc(-c3c[nH]c4ncccc34)s2)c1`, the Ratio Ki in the data set filed under Homo sapiens worked out at 39. Moreover, the IC50 against Cytochrome P450 3A4 came out at 6000 nM; with THP-1 it was 340 nM. The compound also returned a Ki in [2] of 8 nM.
As to `CS(=O)(=O)Nc1cccc(CC(=O)Nc2nnc(-c3c[nH]c4ncccc34)s2)c1`, in the data set filed under Homo sapiens, the Ratio Ki is 34. Moreover, the figures for the IC50 against Cytochrome P450 3A4 and with THP-1 were 100000 nM and 1520 nM, respectively. For the same compound, in data set [2], the Ki was 7 nM.
Take `CN1CCN(CCCOc2cccc(CC(=O)Nc3nc(-c4c[nH]c5ncccc45)cs3)c2)CC1`: the hepatocyte CLint in data set [3] stood at 7.5 µL/min/1e6 cells; in data set [4], 26.8 µL/min/1e6 cells. In data set [5], this compound registered a clearance of 114 mL/min/kg. Also, the AUC(0-inf) in data set [6] is 150 ng·h/mL. Further, the Vd in data set [7] is 10 L/kg. In data set [8], this compound showed a half-life of 0.71 h.
In the case of `CS(=O)(=O)Nc1cccc(CC(=O)Nc2nccc(-c3c[nH]c4ncccc34)n2)c1`, the Ratio Ki in the data set filed under Homo sapiens was 23. Further, the IC50 on Cytochrome P450 3A4 was found to be 48000 nM; in the data set on THP-1 it was 8000 nM. In data set [2], this compound displayed a Ki of 48 nM.
As to `O=C(Cc1cccc(OCCCC2CCNCC2)c1)Nc1nc(-c2c[nH]c3ncccc23)cs1`, inhibition with THP-1 was half-maximal at 20 nM (IC50). In [5], this compound showed a clearance of 128 mL/min/kg. This compound also returned an AUC(0-inf) in [6] of 130 ng·h/mL. Besides, the Vd in data set [7] stood at 24 L/kg. In data set [8], the half-life was 5.4 h.
For the compound `CS(=O)(=O)Nc1cccc(CC(=O)Nc2nc(-c3c[nH]c4nccc(Cl)c34)cs2)c1`, the Ratio Ki in the data set filed under Homo sapiens is 2. For the same compound, at Cytochrome P450 3A4, the IC50 worked out at 8000 nM. Further, in data set [2], affinity was put at a Ki of 92 nM.
Compound `CN1CCN(CCOc2cccc(CC(=O)Nc3nc(-c4c[nH]c5ncccc45)cs3)c2)CC1` showed a Cmax in data set [9] of 60 ng/mL. This compound returned an IC50 in the data set with THP-1 of 20 nM. Besides, the hepatocyte CLint is 3.3 µL/min/1e6 cells in [3] and 32 µL/min/1e6 cells in data set [4]. Also, the results for the AUC(0-inf) in [10] and in data set [6] were 600 ng·h/mL and 240 ng·h/mL, respectively. Besides, the clearance in data set [5] stood at 71 mL/min/kg. Further, the Vd in [7] came out at 14 L/kg. In addition, in [11], the bioavailability amounted to 46%. The half-life in data set [8] is 3.2 h.
In the case of `CS(=O)(=O)Nc1cccc(CC(=O)Nc2nc(-c3c[nH]c4ncc(Br)cc34)cs2)c1`, the Ratio Ki in the data set listed under Homo sapiens worked out at 32. Moreover, the IC50 at Cytochrome P450 3A4 came out at 35000 nM; with THP-1, 10000 nM. In data set [2], this compound displayed a Ki of 22 nM.
For the compound `Cc1sc(NC(=O)Cc2cccc(NS(C)(=O)=O)c2)nc1-c1c[nH]c2ncccc12`, the Ratio Ki in the data set listed under Homo sapiens was determined as 31. The compound further returned an IC50 on Cytochrome P450 3A4 of 5000 nM. This compound had a Ki in [2] of 52 nM.
On the same counts, the results for `CS(=O)(=O)Nc1cccc(CC(=O)Nc2cc(-c3c[nH]c4ncccc34)cs2)c1` are 1, 5000 nM and 100 nM.
Take `CS(=O)(=O)Nc1cccc(CC(=O)Nc2csc(-c3c[nH]c4ncccc34)n2)c1`: in the data set filed under Homo sapiens, the Ratio Ki came to 31. Further, the IC50 on Cytochrome P450 3A4 is 12000 nM; with THP-1, 370 nM. In [2], this compound displayed a Ki of 10 nM.
Turning to `CN1CCN(CCCOc2cccc(CC(=O)Nc3nc(-c4c[nH]c5nccc(F)c45)cs3)c2)CC1`, the Ratio Ki in the data set filed under Homo sapiens was determined as 180. For the same compound, affinity in data set [2] was put at a Ki of 10 nM. The compound further returned an IC50 in the data set on THP-1 of 400 nM.
Turning to `CS(=O)(=O)Nc1cccc(CC(=O)Nc2nc(-c3c[nH]c4ncc(F)cc34)cs2)c1`, the IC50 in data set [1] is greater than 30000 nM; against Cytochrome P450 3A4, 6000 nM; with THP-1, 70 nM. Further, the Ratio Ki in the data set listed under Homo sapiens came to 53. Further, the Ki in data set [2] was 3 nM. Moreover, the hepatocyte CLint was found to be 4.3 µL/min/1e6 cells in [3] and 11.7 µL/min/1e6 cells in data set [4].
`O=C(Cc1cccc(OCCCC2CCNCC2)c1)Nc1nc(-c2c[nH]c3nccc(F)c23)cs1`: the values for the IC50 (in data set [1]; against Cytochrome P450 3A4; in the data set on THP-1) were greater than 30000 nM, 100000 nM and 50 nM, respectively. The Ratio Ki in the data set filed under Homo sapiens turned out to be 143. Further, in data set [2], the Ki is 3 nM. In addition, the hepatocyte CLint in data set [3] worked out at 5.7 µL/min/1e6 cells. In data set [5], this compound came in with a clearance of 68 mL/min/kg. Besides, the AUC(0-inf) in data set [6] stood at 250 ng·h/mL. Besides, the Vd in data set [7] stood at 19 L/kg. The compound also showed a half-life in data set [8] of 5.5 h.
For the compound `CS(=O)(=O)Nc1cccc(CC(=O)Nc2cc(-c3c[nH]c4ncccc34)ncn2)c1`, in the data set filed under Homo sapiens, the Ratio Ki is 20. For the same compound, the values for the IC50 on Cytochrome P450 3A4 and with THP-1 were 100000 nM and 820 nM, respectively. For the same compound, the Ki in data set [2] is 7 nM.
For the compound `CS(=O)(=O)Nc1cccc(CC(=O)Nc2nc(-c3c[nH]c4ncc(O)cc34)cs2)c1`, the Ratio Ki in the data set filed under Homo sapiens came out at 107. Besides, the IC50 against Cytochrome P450 3A4 was 5000 nM; with THP-1 it was 1300 nM. The Ki in data set [2] worked out at 7 nM.
With `CN1CCN(CCCOc2cccc(CC(=O)Nc3nc(-c4c[nH]c5ncc(F)cc45)cs3)c2)CC1`, the Ratio Ki in the data set listed under Homo sapiens was 240. The Ki in data set [2] worked out at 5 nM. Half-maximal inhibition with THP-1 (IC50) required 260 nM.

What is called IC50 is the concentration at which inhibition is half-maximal. One may read the Ki as a measure of affinity in units of concentration, obtained from inhibition or displacement. Lower therefore signals higher affinity. A word on the clearance: it is the rate of elimination divided by the concentration. Read a high clearance as a high capacity for elimination. In general, AUC(0-inf) refers to the area under the concentration-time curve extrapolated to infinity. Read a low AUC(0-inf) as low exposure. Usually half-life stands for how long it takes for the measured level to halve. A high value points to slow loss. Broadly, the Cmax is the peak of the concentration-time curve. One may read the AUC as the area under the concentration-time curve, a measure of exposure. Higher therefore signals more exposure. Broadly, the bioavailability is the share of a dose that reaches the circulation, judged against a reference dose that is usually intravenous. Low readings indicate poor availability, high ones good availability.
